Reference: patent US20240051937A1, “ISOINDOLINONE AMIDE COMPOUNDS USEFUL TO TREAT DISEASES ASSOCIATED WITH GSPT1” (Monte Rosa Therapeutics, Inc., priority 2021, published 2024)
Like-named read-outs stand apart in the source and are kept apart here.

Experiments:
[1] = biological target: T1, Full length wild-type cereblon CRBN (Homo sapiens, UniProt Q96SW2); test: Fluorescence polarization (FP) assay indicating cereblon binding
T1 construct: Full length wild-type cereblon CRBN (80.0 nM, 10 μL) was incubated in assay buffer
T1 sequence (Q96SW2 whole entry): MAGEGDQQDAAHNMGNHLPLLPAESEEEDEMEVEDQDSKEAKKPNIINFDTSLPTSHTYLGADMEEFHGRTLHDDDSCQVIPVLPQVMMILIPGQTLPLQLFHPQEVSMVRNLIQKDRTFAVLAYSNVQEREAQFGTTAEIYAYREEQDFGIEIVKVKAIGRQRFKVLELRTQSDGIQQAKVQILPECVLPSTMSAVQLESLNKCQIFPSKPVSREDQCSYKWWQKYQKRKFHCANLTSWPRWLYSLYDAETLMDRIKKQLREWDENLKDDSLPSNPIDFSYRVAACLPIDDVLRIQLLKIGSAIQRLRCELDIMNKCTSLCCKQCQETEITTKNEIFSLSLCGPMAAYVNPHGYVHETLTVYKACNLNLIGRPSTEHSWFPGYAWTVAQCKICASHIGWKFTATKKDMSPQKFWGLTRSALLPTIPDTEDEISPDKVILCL
From the text: Protocol for Fluorescent Polarization Assay
Compound activity was monitored in a fluorescence polarization (FP) homogeneous assay using 1-[5-({2-[2-(2-{[2-(2,6-dioxopiperidin-3-yl)-1,3-dioxo-2,3-dihydro-1H-isoindol-4-yl]oxy}acetamido)ethoxy]ethyl}carbamoyl)pentyl]-3,3-dimethyl-2-[(1E,3E)-5-[(2E)-1,3,3-trimethyl-5-sulfo-2,3-dihydro-1H-indol-2-ylidene]penta-1,3-dien-1-yl]-3H-indol-1-ium-5-sulfonate as a fluorescent probe. Unless otherwise stated, all reagents were purchased from Sigma Aldrich. Enzymatic reactions were conducted in Perkin-Elmer Black 384 well ProxiPlate Plus (catalogue no. 6008269) in 10 μL total volume. Full length wild-type cereblon CRBN (80.0 nM, 10 μL) was incubated in assay buffer containing 20 mM HEPES (pH 8.0), […], 0.5 mM TCEP and 0.05% Tween 20 in the presence or absence of compound (300 nL). Inhibitors were stored as 10 mM DMSO stocks in an inert environment (low humidity, dark, low oxygen, room temperature) using the Storage Pod System. Compounds and DMSO were dispensed using the Echo E5XX (Labcyte Inc. USA) to give concentrations from 300 to 0.937 or 3000 to 9.3 nM in a 12 data point curve. […] Following incubation at room temperature for 30 min, the assay was initiated by dispensing the probe to a final concentration of 5 nM (2.5 nL of a 20 μM stock) using the Echo E5XX. FP was measured after a period of 12 hours using a Pherastar plate reader (BMG Labtech, Germany) exciting at 590 nm and measuring the amount of parallel and perpendicular light at 675 nm. The FP signal was subsequently normalized to the no-compound control (i.e., DMSO). Analysis and IC50 values were derived using Dotmatics (Dotmatics UK) software.

GSPT1 = GSPT1 (Homo sapiens, UniProt P15170+Q96SW2); test: Immunofluorescence assay for GSPT1 degradation in CAL-Si cells; type: cell-based; set-up: CAL-Si cells were purchased from DSMZ (cat. Number ACC302); host or cells: CAL-Si (CAL-51) cells; settings: 6 hours treatment
Chain of GSPT1 (P15170 whole entry): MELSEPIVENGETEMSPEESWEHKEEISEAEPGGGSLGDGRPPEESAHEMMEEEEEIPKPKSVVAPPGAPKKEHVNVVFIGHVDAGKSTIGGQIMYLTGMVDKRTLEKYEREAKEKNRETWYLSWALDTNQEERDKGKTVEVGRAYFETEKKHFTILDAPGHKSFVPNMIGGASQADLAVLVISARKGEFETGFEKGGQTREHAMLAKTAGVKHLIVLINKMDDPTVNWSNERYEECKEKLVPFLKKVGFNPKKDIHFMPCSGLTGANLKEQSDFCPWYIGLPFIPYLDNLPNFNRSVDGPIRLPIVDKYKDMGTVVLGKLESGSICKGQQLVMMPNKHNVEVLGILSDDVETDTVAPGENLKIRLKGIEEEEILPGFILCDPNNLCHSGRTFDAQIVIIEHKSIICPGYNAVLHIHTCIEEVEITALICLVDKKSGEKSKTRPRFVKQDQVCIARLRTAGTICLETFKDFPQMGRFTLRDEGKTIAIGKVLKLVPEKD
Chain of GSPT1 (Q96SW2 whole entry): as the sequence (Q96SW2 whole entry) above
Chain of GSPT1 (Q16531 whole entry partner): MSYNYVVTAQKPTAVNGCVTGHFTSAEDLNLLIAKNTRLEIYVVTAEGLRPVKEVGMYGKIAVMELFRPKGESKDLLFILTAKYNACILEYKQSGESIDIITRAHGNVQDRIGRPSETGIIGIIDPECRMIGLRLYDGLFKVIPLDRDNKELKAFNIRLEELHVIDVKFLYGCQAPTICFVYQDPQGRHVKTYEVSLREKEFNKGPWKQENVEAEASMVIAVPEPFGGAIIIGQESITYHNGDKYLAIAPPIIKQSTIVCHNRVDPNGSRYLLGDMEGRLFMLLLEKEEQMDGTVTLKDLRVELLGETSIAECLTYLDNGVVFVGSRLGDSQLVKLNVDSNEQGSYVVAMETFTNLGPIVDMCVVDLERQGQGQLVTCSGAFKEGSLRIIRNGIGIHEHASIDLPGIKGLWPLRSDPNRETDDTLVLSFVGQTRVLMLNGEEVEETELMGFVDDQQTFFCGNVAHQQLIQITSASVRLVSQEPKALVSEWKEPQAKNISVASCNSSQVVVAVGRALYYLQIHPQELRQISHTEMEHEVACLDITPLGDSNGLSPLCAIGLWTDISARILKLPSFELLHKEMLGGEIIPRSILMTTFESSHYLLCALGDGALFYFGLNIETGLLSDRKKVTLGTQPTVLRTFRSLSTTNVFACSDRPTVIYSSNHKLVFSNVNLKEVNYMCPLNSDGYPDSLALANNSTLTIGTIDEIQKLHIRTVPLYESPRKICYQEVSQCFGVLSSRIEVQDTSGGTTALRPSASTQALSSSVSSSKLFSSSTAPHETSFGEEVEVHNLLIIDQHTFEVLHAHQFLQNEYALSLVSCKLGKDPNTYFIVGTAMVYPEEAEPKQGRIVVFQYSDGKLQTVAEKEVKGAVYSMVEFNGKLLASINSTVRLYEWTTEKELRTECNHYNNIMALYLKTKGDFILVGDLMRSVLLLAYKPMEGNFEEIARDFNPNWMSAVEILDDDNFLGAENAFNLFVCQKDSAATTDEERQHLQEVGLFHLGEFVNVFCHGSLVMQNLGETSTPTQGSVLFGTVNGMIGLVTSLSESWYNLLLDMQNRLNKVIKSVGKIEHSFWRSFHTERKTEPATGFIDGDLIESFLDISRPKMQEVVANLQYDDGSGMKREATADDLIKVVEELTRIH
Experimental: The representative compounds were tested in an immunofluorescence assay for their activity to bind to degrade GSPT1. CAL-Si cells were purchased from DSMZ (cat. Number ACC302), sub-cultured in 90% Dulbecco's MEM (4.5 g/L glucose, Gibco 11965)+10% […] inactivated FBS (BioConcept, 2-01F136I) and incubated at 37° C., 5% CO2. For the assay, imaging microtiterplate Cell Carrier 96 Ultra (Perkin Elmer 6055302) were pre-coated with Fibronectin (Sigma F085, 30 μl at 0.2 μg/ml) in PBS (100 μl, Gibco 14190) for 45 min at room temperature, rinsed with PBS and CAL-Si cells (30K cells/well) were plated and let to adhere overnight. Cells were treated with compounds typically using a serial dilution ranging from 30 μM to 0.1 nM for 6 hours. Compounds were stored at 10 mM DMSO stocks. Vehicle (DMSO), positive (CC-885, 10 μM) and rescue controls (positive control plus 0.2 μM bortezomib) were also included at this stage. Cells were subsequently rinsed with PBS and fixed in 10% Formalin solution (50 μl, Sigma HT5011)) for 20 mins at room temperature. Following three consecutive PBS washes (100 μl), cells were permeabilized in 0.1% Triton X-100 in PBS (Sigma 93443, 50 μl) for 15 mins at room temperature. Following three further PBS washes, […] blocking buffer (1% BSA, Sigma A4503, in PBS) was added for 45 min for signal-to-noise reduction.
Primary antibody (human GSPT1, Sigma HPA052488) was diluted in blocking buffer (dil.1/300, 35 μl/well) and incubated with the cells overnight at 4° C. After three PBS washes, Alexa-fluor 488 coupled secondary antibodies (Invitrogen, A32731, dil.1/1000), Alexa-fluor 647-Phalloidin (Invitrogen, A22287, dil.1/200) and DAPI (Thermo, #62248, dil.1/1000) were diluted in blocking buffer and incubated with the samples for 2 hours at room temperature. After three final PBS washes, samples were conserved in […] PBS in the dark, until measurement. Image acquisition was performed on the Operetta High-Content Imager (Perkin-Elmer). Fluorescence intensity of Alexa-Fluor 488 (GSPT1), Alexa-Fluor 647 (Actin) and DAPI (Nucleus) were measured. For the determination of GSPT1 DC50 values, a custom algorithm implemented in the PerkinElmer image analysis software Harmony-Acapella® was developed. After user-defined setting of adjustment parameters, the analysis was run identically without human intervention for all image fields. DAPI staining of the nuclei was used to determine the location of cells using standard nuclei detection modules. Segmentation artifacts were removed by threshold-based filters for area, roundness and intensity. The outline of the cells was determined analogously from the sum of the normalized, smoothed DAPI and Actin channel, starting from each nucleus.
The Alexa-Fluor 488 (GSPT1) signal intensity in each cell was finally measured, in order to obtain a Mean intensity per cell. GSPT1 degradation (DC50) was calculated after normalization to controls and data import in CDD vault Database, using non-linear regression.

[2] = cereblon binding, CRBN 80.0 nM, probe 5 nM, FP read after 12 hours, read-out: rFP IC50
[3] = fluorescence polarization assay, read-out: IC50 value (cereblon binding)
[4] = read-out: Code: activity for GSPT1 degradation (DC50)
[5] = GSPT1 degradation, read-out: DC50

Compound	IC50 [1, 2] [nM]	IC50 [1, 3] [nM]	DC50 (GSPT1; [4]) [nM]	DC50 (GSPT1; [5]) [nM]
Cc1ncc(NC(=O)CCc2ccc3c(c2)C(=O)N(C2CCC(=O)NC2=O)C3)cc1Cl (stereo not drawn) [Compound 3]	≤ 500	< 1100	30 to 300	–
O=C1CCC(N2Cc3ccc(CCC(=O)NC4CCCCC4)cc3C2=O)C(=O)N1 (stereo not drawn) [Compound 4]	500 to 1100	< 1100	> 300	–
O=C1CCC(N2Cc3ccc(CCC(=O)Nc4cccc(OC(F)(F)F)c4)cc3C2=O)C(=O)N1 (stereo not drawn) [Compound 5]	1100 to 1700	–	30 to 300	–
CC(C)CCNC(=O)CCc1ccc2c(c1)C(=O)N(C1CCC(=O)NC1=O)C2 (stereo not drawn) [Compound 6]	> 1700	–	> 300	–
Cc1cc(C)cc(NC(=O)CCc2ccc3c(c2)C(=O)N(C2CCC(=O)NC2=O)C3)c1 (stereo not drawn) [Compound 7]	500 to 1100	< 1100	≤ 30	25
O=C1CCC(N2Cc3ccc(CCC(=O)Nc4ccc(F)c(Cl)c4)cc3C2=O)C(=O)N1 (stereo not drawn) [Compound 8]	500 to 1100	< 1100	30 to 300	–
O=C(CCc1ccc2c(c1)C(=O)N(C1CCC(=O)NC1=O)C2)NCC1CC1 (stereo not drawn) [Compound 9]	500 to 1100	< 1100	> 300	–
COc1cc(C)c(Cl)cc1NC(=O)CCc1ccc2c(c1)C(=O)N(C1CCC(=O)NC1=O)C2 (stereo not drawn) [Compound 10]	500 to 1100	< 1100	> 300	–
O=C1CCC(N2Cc3ccc(CCC(=O)Nc4cc(Cl)cc(OC(F)(F)F)c4)cc3C2=O)C(=O)N1 (stereo not drawn) [Compound 11]	> 1700	–	≤ 30	17
O=C1CCC(N2Cc3ccc(CCC(=O)NC4CCN(c5ccccn5)CC4)cc3C2=O)C(=O)N1 (stereo not drawn) [Compound 12]	500 to 1100	< 1100	> 300	–
O=C1CCC(N2Cc3ccc(CCC(=O)N4CCCCC4)cc3C2=O)C(=O)N1 (stereo not drawn) [Compound 13]	> 1700	–	> 300	–
COc1ccc(Cl)cc1NC(=O)CCc1ccc2c(c1)C(=O)N(C1CCC(=O)NC1=O)C2 (stereo not drawn) [Compound 14]	500 to 1100	< 1100	> 300	–
O=C1CCC(N2Cc3ccc(CCC(=O)N4CCCC4)cc3C2=O)C(=O)N1 (stereo not drawn) [Compound 15]	1100 to 1700	–	> 300	–
COc1cc(Cl)ccc1NC(=O)CCc1ccc2c(c1)C(=O)N(C1CCC(=O)NC1=O)C2 (stereo not drawn) [Compound 16]	≤ 500	< 1100	> 300	–
O=C1CCC(N2Cc3ccc(CCC(=O)NC4CCCC4)cc3C2=O)C(=O)N1 (stereo not drawn) [Compound 17]	500 to 1100	< 1100	> 300	–
O=C1CCC(N2Cc3ccc(CCC(=O)Nc4cc(F)cc(Cl)c4)cc3C2=O)C(=O)N1 (stereo not drawn) [Compound 18]	> 1700	–	> 300	–
O=C1CCC(N2Cc3ccc(CCC(=O)Nc4cc(Cl)cc(OC5CCNC5)c4)cc3C2=O)C(=O)N1 (stereo not drawn) [Compound 19]	500 to 1100	< 1100	> 300	–
O=C1CCC(N2Cc3ccc(CCC(=O)Nc4ccc(N5CCCCC5)nc4)cc3C2=O)C(=O)N1 (stereo not drawn) [Compound 20]	500 to 1100	< 1100	30 to 300	–

Compound	IC50 [1, 2] [nM]	IC50 [1, 3] [nM]	DC50 (GSPT1; [4]) [nM]	DC50 (GSPT1; [5]) [nM]
O=C1CCC(N2Cc3ccc(CCC(=O)N4CCC(Oc5ccccc5)C4)cc3C2=O)C(=O)N1 (stereo not drawn) [Compound 21]	> 1700	–	> 300	–
Cc1c(Cl)cc(NC(=O)CCc2ccc3c(c2)C(=O)N(C2CCC(=O)NC2=O)C3)cc1CN1CC2CC1CO2 (stereo not drawn) [Compound 22]	500 to 1100	< 1100	30 to 300	–
O=C1CCC(N2Cc3ccc(CCC(=O)Nc4cc(Cl)cc(OC(F)F)c4)cc3C2=O)C(=O)N1 (stereo not drawn) [Compound 23]	> 1700	–	≤ 30	27
Cc1c(Cl)cc(NC(=O)CCc2ccc3c(c2)C(=O)N(C2CCC(=O)NC2=O)C3)cc1CN1CC2CCC(C1)O2 (stereo not drawn) [Compound 24]	1100 to 1700	–	30 to 300	–
O=C1CCC(N2Cc3ccc(CCC(=O)Nc4cc(Cl)cc(OCC5CCNC5)c4)cc3C2=O)C(=O)N1 (stereo not drawn) [Compound 25]	500 to 1100	< 1100	> 300	–
O=C1CCC(N2Cc3ccc(CCC(=O)Nc4ccc5c(c4)OCC5)cc3C2=O)C(=O)N1 (stereo not drawn) [Compound 26]	500 to 1100	< 1100	> 300	–
O=C1CCC(N2Cc3ccc(CCC(=O)N4CCN(c5ccccc5)CC4)cc3C2=O)C(=O)N1 (stereo not drawn) [Compound 27]	> 1700	–	> 300	–
O=C1CCC(N2Cc3ccc(CCC(=O)Nc4cc(F)cc(OC(F)F)c4)cc3C2=O)C(=O)N1 (stereo not drawn) [Compound 28]	500 to 1100	< 1100	30 to 300	–
Cc1ccc(NC(=O)CCc2ccc3c(c2)C(=O)N(C2CCC(=O)NC2=O)C3)cc1OC(F)F (stereo not drawn) [Compound 29]	1100 to 1700	–	≤ 30	6
O=C1CCC(N2Cc3ccc(CCC(=O)Nc4ccc(F)c(OC(F)F)c4)cc3C2=O)C(=O)N1 (stereo not drawn) [Compound 30]	500 to 1100	< 1100	30 to 300	–
CN1CCC(Oc2cc(Cl)cc(NC(=O)CCc3ccc4c(c3)C(=O)N(C3CCC(=O)NC3=O)C4)c2)C1 (stereo not drawn) [Compound 31]	500 to 1100	< 1100	30 to 300	–
CCOc1cc(NC(=O)CCc2ccc3c(c2)C(=O)N(C2CCC(=O)NC2=O)C3)ccc1C (stereo not drawn) [Compound 32]	500 to 1100	< 1100	30 to 300	–
COc1cc(NC(=O)CCc2ccc3c(c2)C(=O)N(C2CCC(=O)NC2=O)C3)ccc1C (stereo not drawn) [Compound 33]	500 to 1100	< 1100	30 to 300	–
O=C1CCC(N2Cc3ccc(CCC(=O)Nc4ccc(-c5ccccc5)nc4)cc3C2=O)C(=O)N1 (stereo not drawn) [Compound 34]	≤ 500	< 1100	≤ 30	13
Cc1c(CN2CCOCC2)cc(NC(=O)CCc2ccc3c(c2)C(=O)N(C2CCC(=O)NC2=O)C3)cc1OC(F)F (stereo not drawn) [Compound 35]	500 to 1100	< 1100	≤ 30	12
COc1cc(NC(=O)CCc2ccc3c(c2)C(=O)N(C2CCC(=O)NC2=O)C3)cnc1C (stereo not drawn) [Compound 36]	1100 to 1700	–	> 300	–
CN1CCC(COc2cc(Cl)cc(NC(=O)CCc3ccc4c(c3)C(=O)N(C3CCC(=O)NC3=O)C4)c2)C1 (stereo not drawn) [Compound 37]	500 to 1100	< 1100	> 300	–
O=C1CCC(N2Cc3ccc(CCC(=O)Nc4ccc(C5CC5)cc4)cc3C2=O)C(=O)N1 (stereo not drawn) [Compound 38]	≤ 500	< 1100	> 300	–
